Experimental data taken from ChEMBL document CHEMBL3885881, “DrugMatrix”.

Species: Rattus norvegicus
Assay: DrugMatrix - Regimen: Daily Repeat
Type: toxicity, organism-based, Sprague-Dawley
Design: regimen Daily Repeat, gender Male, age 6-8 weeks
Conditions: in vivo, sc, route subcutaneous, […]; for ABSOLUTE BASOPHIL / ABSOLUTE EOSINOPHIL / ABSOLUTE LYMPHOCYTE / ABSOLUTE MONOCYTE / ABSOLUTE SEGMENTED NEUTROPHIL / BASOPHIL / EOSINOPHIL / ERYTHROCYTE COUNT / HEMATOCRIT / LEUKOCYTE COUNT / MEAN CORPUSCULAR HEMOGLOBIN / MEAN CORPUSCULAR HEMOGLOBIN CONCENTRATION / MEAN CORPUSCULAR VOLUME / MONOCYTE / NEUTROPHIL / NUCLEATED RED BLOOD CELLS / PLATELET COUNT: tissue Blood; for ALANINE AMINOTRANSFERASE / ALBUMIN / ALKALINE PHOSPHATASE / ASPARTATE AMINOTRANSFERASE / BLOOD UREA NITROGEN / CHLORIDE / CHOLESTEROL / CREATINE PHOSPHOKINASE / CREATININE / GLUCOSE / LACTATE DEHYDROGENASE / LIPASE / PHOSPHORUS / POTASSIUM / TOTAL BILIRUBIN / URIC ACID: tissue Plasma
[1] = 79 mg/kg, 120 h, dose level High, time 5 day
[2] = 72 h, dose 1.3 mg/Kg, dose level Low, time 3 day
[3] = 120 h, dose 1.3 mg/Kg, dose level Low, time 5 day

Compound: C[C@H]1C[C@H]2[C@@H]3CCC4=CC(=O)C=C[C@]4(C)[C@@]3(F)[C@@H](O)C[C@]2(C)[C@@]1(O)C(=O)CO [BETAMETHASONE]
- ABSOLUTE BASOPHIL [1]: 0 CELLS/uL
- ABSOLUTE EOSINOPHIL [1]: 0 CELLS/uL
- ABSOLUTE LYMPHOCYTE [1]: 513.67 CELLS/uL
- ABSOLUTE MONOCYTE [1]: 201.67 CELLS/uL
- ABSOLUTE SEGMENTED NEUTROPHIL [1]: 19451.33 CELLS/uL
- BASOPHIL [1]: 0%
- EOSINOPHIL [1]: 0%
- ERYTHROCYTE COUNT [1]: 5.57 x10E6/uL
- HEMATOCRIT [1]: 34.53%
- LEUKOCYTE COUNT [1]: 20.17 x10E3/uL
- MEAN CORPUSCULAR HEMOGLOBIN [1]: 23.77 pg
- MEAN CORPUSCULAR HEMOGLOBIN CONCENTRATION [1]: 38.47 G/DL
- MEAN CORPUSCULAR VOLUME [1]: 61.87 fL
- MONOCYTE [1]: 1%
- NEUTROPHIL [1]: 95%
- NUCLEATED RED BLOOD CELLS [1]: 0 /100WBC
- PLATELET COUNT [1]: 893 x10E3/uL
- ALANINE AMINOTRANSFERASE [1]: 251.67 u/L
- ALBUMIN [1]: 4.5 G/DL
- ALKALINE PHOSPHATASE [1]: 329 u/L
- ASPARTATE AMINOTRANSFERASE [1]: 307.33 u/L
- BLOOD UREA NITROGEN [1]: 21.67 mg/dL
- CHLORIDE [1]: 93.67 MEQ/L
- CHOLESTEROL [1]: 105 mg/dL
- CREATINE PHOSPHOKINASE [1]: 200.33 u/L
- CREATININE [1]: 0.3 mg/dL
- GLUCOSE [1]: 505.67 mg/dL
- LACTATE DEHYDROGENASE [1]: 602 u/L
- LIPASE [1]: 11.33 u/L
- PHOSPHORUS [1]: 11.1 mg/dL
- POTASSIUM [1]: 5.39 MEQ/L
- TOTAL BILIRUBIN [1]: 0.23 mg/dL
- URIC ACID [1]: 1 mg/dL
- ABSOLUTE BASOPHIL [2]: 0 CELLS/uL
- ABSOLUTE EOSINOPHIL [2]: 15.33 CELLS/uL
- ABSOLUTE LYMPHOCYTE [2]: 4290.33 CELLS/uL
- ABSOLUTE MONOCYTE [2]: 15.33 CELLS/uL
- ABSOLUTE SEGMENTED NEUTROPHIL [2]: 845.67 CELLS/uL
- BASOPHIL [2]: 0%
- EOSINOPHIL [2]: 0.33%
- ERYTHROCYTE COUNT [2]: 5.47 x10E6/uL
- HEMATOCRIT [2]: 33.27%
- LEUKOCYTE COUNT [2]: 5.17 x10E3/uL
- MEAN CORPUSCULAR HEMOGLOBIN [2]: 24.57 pg
- MEAN CORPUSCULAR HEMOGLOBIN CONCENTRATION [2]: 40.37 G/DL
- MEAN CORPUSCULAR VOLUME [2]: 60.9 fL
- MONOCYTE [2]: 0.33%
- NEUTROPHIL [2]: 17%
- NUCLEATED RED BLOOD CELLS [2]: 0 /100WBC
- PLATELET COUNT [2]: 1195.33 x10E3/uL
- ALANINE AMINOTRANSFERASE [2]: 49.67 u/L
- ALBUMIN [2]: 5.1 G/DL
- ALKALINE PHOSPHATASE [2]: 401.67 u/L
- ASPARTATE AMINOTRANSFERASE [2]: 97 u/L
- BLOOD UREA NITROGEN [2]: 15 mg/dL
- CHLORIDE [2]: 98.67 MEQ/L
- CHOLESTEROL [2]: 79.33 mg/dL
- CREATINE PHOSPHOKINASE [2]: 415.33 u/L
- CREATININE [2]: 0.19 mg/dL
- GLUCOSE [2]: 120 mg/dL
- LACTATE DEHYDROGENASE [2]: 165.33 u/L
- LIPASE [2]: 11 u/L
- PHOSPHORUS [2]: 11.13 mg/dL
- POTASSIUM [2]: 6.2 MEQ/L
- TOTAL BILIRUBIN [2]: 0.17 mg/dL
- URIC ACID [2]: 0.9 mg/dL
- ABSOLUTE BASOPHIL [3]: 0 CELLS/uL
- ABSOLUTE EOSINOPHIL [3]: 75.67 CELLS/uL
- ABSOLUTE LYMPHOCYTE [3]: 4789.67 CELLS/uL
- ABSOLUTE MONOCYTE [3]: 25 CELLS/uL
- ABSOLUTE SEGMENTED NEUTROPHIL [3]: 1976.33 CELLS/uL
- BASOPHIL [3]: 0%
- EOSINOPHIL [3]: 1%
- ERYTHROCYTE COUNT [3]: 6.27 x10E6/uL
- HEMATOCRIT [3]: 38.47%
- LEUKOCYTE COUNT [3]: 6.87 x10E3/uL
- MEAN CORPUSCULAR HEMOGLOBIN [3]: 24.07 pg
- MEAN CORPUSCULAR HEMOGLOBIN CONCENTRATION [3]: 39.23 G/DL
- MEAN CORPUSCULAR VOLUME [3]: 61.3 fL
- MONOCYTE [3]: 0.33%
- NEUTROPHIL [3]: 30.33%
- NUCLEATED RED BLOOD CELLS [3]: 0 /100WBC
- PLATELET COUNT [3]: 1459.67 x10E3/uL
- ALANINE AMINOTRANSFERASE [3]: 71 u/L
- ALBUMIN [3]: 5.1 G/DL
- ALKALINE PHOSPHATASE [3]: 397 u/L
- ASPARTATE AMINOTRANSFERASE [3]: 114 u/L
- BLOOD UREA NITROGEN [3]: 17.33 mg/dL
- CHLORIDE [3]: 102.67 MEQ/L
- CHOLESTEROL [3]: 70.33 mg/dL
- CREATINE PHOSPHOKINASE [3]: 195.67 u/L
- CREATININE [3]: 0.16 mg/dL
- GLUCOSE [3]: 164.67 mg/dL
- LACTATE DEHYDROGENASE [3]: 354.67 u/L
- LIPASE [3]: 9.67 u/L
- PHOSPHORUS [3]: 13.03 mg/dL
- POTASSIUM [3]: 7 MEQ/L
- TOTAL BILIRUBIN [3]: 0.2 mg/dL
- URIC ACID [3]: 1.8 mg/dL
